Measurements: US20240415855A1, “COMPOSITIONS AND METHODS RELATING TO USE OF PHOSPHATIDIC ACID TO RESCUE FETAL ALCOHOL SPECTRUM DISORDER (FASD) GROWTH RESTRICTION AND BLOOD VESSEL CONSTRICTION” (Wayne State University, priority 2023, published 2024)
Read-outs that look alike come from different tables or passages of the source.

What was measured:
[1] = test system: endothelial nitric oxide synthase (eNOS); assay: Uterine artery eNOS immunoblotting / immunofluorescence after in vivo treatment; set-up: species or system rat; conditions: for Total eNOS levels in uterine artery: ethanol and/or PA treatment; for P-Ser1177 eNOS level in uterine artery: ethanol/alcohol-exposed vs control, P<0.05
Protocol: (§1) The dams were then assigned into experimental groups. […] Rats were euthanized by decapitation while under isoflurane anesthesia.
Immunoblotting was performed using standard laboratory procedures. Following euthanasia, the uterine arteries were isolated by separating the vein, and cleaning the adipose tissues in HBS, before flash freezing for immunoblot analysis. Tissues were first homogenized using a 4° C. cooled bead homogenizer (Benchmark Scientific, Sayreville, NJ, USA) and then quantified using BCA protein quantification assay. Next, 20 μg of the uterine artery sample protein was then loaded on to 4-20% mini-protean TGX gels (Bio-rad, Hercules, CA, USA). Following transfer to a PVDF membrane, P-Ser1177 eNOS (Novus Biologicals, Centennial, CO, USA), total eNOS (BD Biosciences, Franklin Lakes, NJ, USA), and β-Actin (Sigma Aldrich, St. Louis, MI, USA) were probed. Densitometry analysis was performed using AzureSpot (Azure Biosystems, Dublin, CA, USA).
Immunofluorescence assessments were performed using previously published protocols. In brief, maternal uterine arteries were sectioned at 8 μm with a Leica cryostat (CM1860, Leica Biosystems, Buffalo Grove, IL, USA). Sections were subsequently fixed with ice-cold methanol (30 min, −20° C.), and then rinsed in PBS, and incubated in 10% normal serum (60 min). This was followed by incubation with (1:100; p1177-eNOS; Cell Signaling and 1:250; total eNOS, BD Biosciences) primary antibody overnight at 4° C. in a humidified chamber. The sections were then incubated with goat anti-rabbit IgG secondary antibody (Alexa Fluor 488, Invitrogen, Carlsbad, CA, USA), for 1 h at room temperature. Digital images were captured with an Olympus BX63 […] that was equipped with U-HGLGPS fluorescent light source, ORCA-Flash 4.0 LT camera, Hamamatsu Photonics (Hamamatsu, Japan), and Olympus cellSens Dimension software Version 3.2 (Olympus, Tokyo, Japan).

[2] = test system: pregnant Sprague-Dawley rats; assay: Maternal and fetal growth assessment in FASD rat model (binge alcohol with or without in vivo PA)
Protocol: (§2) Molecule administered: PA (#840857C, Avanti Polar Lipids) was air-dried under a gentle stream of nitrogen gas and resuspended in 1% BSA to make a 10^−2 M stock solution. PA was administered to pregnant rats in vivo at a dose of 4.5 mg/kg/day for alcohol dose of 4.5 g/kg body weight from gestation day 4 through 10 and 6 mg/kg/day for alcohol dose of 6 g/kg body weight from gestation day 11 through 19 or 20.
(§3) Timed pregnant Sprague-Dawley rats (8-12 weeks old), were purchased from Charles River (Wilmington, MA, USA) and arrived on GD 4, where they were housed in a temperature-controlled room (23° C.) with a 12:12 h light-dark cycle. The dams were acclimatized for a day before weighing and handling. The dams were then assigned into experimental groups. Four in vivo treatment groups were utilized: (1) a nutritional pair-fed control group (control), that served as a control for nutrition and for the gavage procedure. To control for the calories derived from alcohol, these pair-fed control rats were administered isocaloric maltose-dextrin (once-daily) via orogastric gavage. […] (3) An in vivo phosphatidic acid (PA) control group (control PA), to control for the in vivo PA supplement. […] (4) A binge alcohol in vivo PA group (alcohol PA), that received alcohol via intragastric gavage similar to those in the binge alcohol group along with the PA supplement. Daily PA doses were calculated based on the dam's weight at the time of administration (PA (μL)=0.2×dam weight (g) GD 5-10; PA (μL)=0.2105×weight (g) GD 11-19). Intake of food in the alcohol treatment group was measured, and an equivalent amount of food was given to the pair-fed control dams to account for additional nutritional factors. Rats were euthanized by decapitation while under isoflurane anesthesia.
(§4) Maternal weights and fetal weights were measured on GD 20-21, one day after the last treatment on GD 19-20, following euthanasia.
(§5) Maternal weight and fetal weight (unit of analysis is a dam or litter) were analyzed using two-way mixed ANOVA with alcohol as the between factor and PA as the within factor. Normality was tested using the Shapiro-Wilk normality test where appropriate. […] The data were considered significant if the p value was <0.05.

uterine artery = assay: Pressure arteriography of uterine artery (ACh-induced vasodilation) after in vivo treatment; set-up: species or system rat; conditions: ethanol/alcohol group vs control, p<0.05
Protocol: as §1
Following euthanasia, the entirety of the uterus was excised and immediately placed in ice-cold HBS for pressure arteriography experiments. Uterine artery functional assessments were performed following uterine artery isolation using established procedures. Briefly, the uterine horn was transferred to a 200 mm petri dish with solidified Sylgard to facilitate tissue isolation and cleaning in ice-cold HBS. A 3-5 mm segment of the primary uterine artery was dissected between arterial bifurcations from the approximate center of the uterine horn. Surrounding adipose and connective tissues were carefully removed from the uterine artery segment. […] Intramural pressure was then increased to mimic in vivo pressures at 90 mm Hg, at which pressure the ACh concentration responses were measured. Vessels were pre-constricted with 10^−6 M Tbx as determined previously. […] The above treatment was followed by the administration of three-fold increasing concentrations of ACh from 10^−10 M up to 10^−5 M. Vascular response was recorded by established methods using Ionwizard software version 6.6 (Ionoptix LLC, Westwood, MA, USA) for at least 5 min, or until arterial diameter stabilized.

[3] = test system: pregnant Sprague-Dawley rats; conditions: rat, in vivo
Protocol: as §2, §3, §4, §5

[4] = fetuses from ethanol-fed rats, P<0.05

Row | Compound | Total eNOS levels in uterine artery [1] | Total eNOS levels in uterine artery ([1]; listed as alcohol) | P-Ser1177 eNOS level in uterine artery [1] | P-Ser1177 eNOS level in uterine artery ([1]; listed as Alcohol) | P-Ser1177 eNOS level in uterine artery ([1]; listed as Ethanol) | Maternal body weights ([2]; GD 20-21, control, alcohol, control PA, alcohol PA groups) | Average litter size ([2]; alcohol group) | Mean fetal weights ([2]; alcohol group vs control, p<0.0001) | Crown-rump length lower than pair-fed control [2, 4] | Mean fetal weight lower than pair-fed control [2, 4] | Acetylcholine-induced uterine artery relaxation (vasodilation) (uterine artery) | Acetylcholine-induced uterine artery relaxation (vasodilation) (uterine artery; listed as alcohol) | Maternal body weights [3]
1 | CCO [ethanol] | Neither ethanol treatment nor PA affected total eNOS levels | Neither alcohol nor PA had any effect on total eNOS | decreases | significantly reduced | significantly reduced | did not differ among the treatment groups | 10.83±1.33 | significantly lower | ~8% | ~9% | significantly impaired | significantly decreased | 
2 | L-α-phosphatidic acid [PA] |  |  |  |  |  |  |  |  |  |  |  |  | did not differ among the treatment groups
